Data on one molecule can be found in paper PMC6934184, “Selective DNA-PKcs inhibition extends the therapeutic index of localized radiotherapy and chemotherapy” (The Journal of Clinical Investigation, 2019).

As usually defined, the inhibition is the drop in the measured response relative to a control, in per cent.

This assay concerns the target T1, PAK3 (Homo sapiens, UniProt O75914).
T1 construct: purchased Thermo Fisher Scientific (Life Technologies) SelectScreen
Put plainly: SelectScreen Z'LYTE. Format: biochemical. A digest of the protocol:
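NU5455 was profiled across the SelectScreen Broad panel of kinase activity and binding assays. Z'LYTE reactions such as CSF1R ran at apparent Km ATP, while the Adapta CAMK1 assay used ATP listed as 10. Values are given as percent.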

The structures appear in SMILES notation.

T1 sequence (O75914 whole entry): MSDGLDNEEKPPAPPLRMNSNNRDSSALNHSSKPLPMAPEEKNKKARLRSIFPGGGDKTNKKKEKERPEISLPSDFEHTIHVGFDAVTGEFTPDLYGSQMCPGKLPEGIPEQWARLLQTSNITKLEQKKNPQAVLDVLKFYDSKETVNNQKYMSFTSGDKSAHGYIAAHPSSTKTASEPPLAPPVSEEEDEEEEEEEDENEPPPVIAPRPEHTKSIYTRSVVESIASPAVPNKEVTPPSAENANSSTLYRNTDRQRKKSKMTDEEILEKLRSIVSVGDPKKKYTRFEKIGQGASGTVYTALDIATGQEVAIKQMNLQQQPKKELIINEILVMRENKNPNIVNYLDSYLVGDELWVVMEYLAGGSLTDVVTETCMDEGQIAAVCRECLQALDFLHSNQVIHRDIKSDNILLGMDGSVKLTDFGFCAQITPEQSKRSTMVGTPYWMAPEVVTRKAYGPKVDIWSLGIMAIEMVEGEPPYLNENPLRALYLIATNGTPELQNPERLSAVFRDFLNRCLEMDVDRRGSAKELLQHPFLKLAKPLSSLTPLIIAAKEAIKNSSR

For `CN(C(=O)CN1CCOCC1)c1ccc2sc3c(-c4cccc5c(=O)cc(N6CC7CCC(C6)O7)oc45)cccc3c2c1` [NU5455], the inhibition at 1 µM was -42.6%.
